Literature values as cited in patent publication US10548876B2 (Race Oncology Ltd., priority 2013, dated 2020).
Counter-ions that a name gives are not always drawn. Like-named read-outs stand apart in the source and are kept apart here.

What was measured:
[1] = tested on: telomerase-expressing cells and ALT-positive cell lines
telomerase = conditions: by interfering with substrate recognition
[2] = target: glycogen synthase kinase-3β (GSK-3β) (Homo sapiens, UniProt P49841)
double-stranded DNA = conditions: under physiological conditions, threading mode
[3] = 5 day schedule of 60 min infusions
P-glycoprotein = P-glycoprotein (Homo sapiens, UniProt P08183)
[4] = 72-hr infusion
[5] = tested on: colon 26, Lewis lung, Ridgway osteosarcoma, B16, Lieberman plasma cell, P388 or L1210 cancer cells
metastatic breast cancer = conditions: patients with metastatic breast cancer
[6] = not given; remark: listed apart in the source
[7] = not given; remark: listed apart in the source
[8] = not given; remark: listed apart in the source
[9] = physiologic pH
[10] = tested on: hepatic microsomal enzymes; conditions: specific metabolites not identified
[11] = over 96 hr
[12] = one report; interpreted as tissue sequestration with depot effect
[13] = tested on: refractory malignant melanoma
[14] = in vivo
human colon cancer = human colon cancer tested in vitro or in vivo
[15] = triphasic elimination
[16] = not given; remark: listed apart in the source
[17] = local injection; physically decomposes bisantrene
[18] = patients, 90 min infusion at 260 mg/m^2

P-glycoprotein, sequence (P08183 whole entry, the tested form may be a part): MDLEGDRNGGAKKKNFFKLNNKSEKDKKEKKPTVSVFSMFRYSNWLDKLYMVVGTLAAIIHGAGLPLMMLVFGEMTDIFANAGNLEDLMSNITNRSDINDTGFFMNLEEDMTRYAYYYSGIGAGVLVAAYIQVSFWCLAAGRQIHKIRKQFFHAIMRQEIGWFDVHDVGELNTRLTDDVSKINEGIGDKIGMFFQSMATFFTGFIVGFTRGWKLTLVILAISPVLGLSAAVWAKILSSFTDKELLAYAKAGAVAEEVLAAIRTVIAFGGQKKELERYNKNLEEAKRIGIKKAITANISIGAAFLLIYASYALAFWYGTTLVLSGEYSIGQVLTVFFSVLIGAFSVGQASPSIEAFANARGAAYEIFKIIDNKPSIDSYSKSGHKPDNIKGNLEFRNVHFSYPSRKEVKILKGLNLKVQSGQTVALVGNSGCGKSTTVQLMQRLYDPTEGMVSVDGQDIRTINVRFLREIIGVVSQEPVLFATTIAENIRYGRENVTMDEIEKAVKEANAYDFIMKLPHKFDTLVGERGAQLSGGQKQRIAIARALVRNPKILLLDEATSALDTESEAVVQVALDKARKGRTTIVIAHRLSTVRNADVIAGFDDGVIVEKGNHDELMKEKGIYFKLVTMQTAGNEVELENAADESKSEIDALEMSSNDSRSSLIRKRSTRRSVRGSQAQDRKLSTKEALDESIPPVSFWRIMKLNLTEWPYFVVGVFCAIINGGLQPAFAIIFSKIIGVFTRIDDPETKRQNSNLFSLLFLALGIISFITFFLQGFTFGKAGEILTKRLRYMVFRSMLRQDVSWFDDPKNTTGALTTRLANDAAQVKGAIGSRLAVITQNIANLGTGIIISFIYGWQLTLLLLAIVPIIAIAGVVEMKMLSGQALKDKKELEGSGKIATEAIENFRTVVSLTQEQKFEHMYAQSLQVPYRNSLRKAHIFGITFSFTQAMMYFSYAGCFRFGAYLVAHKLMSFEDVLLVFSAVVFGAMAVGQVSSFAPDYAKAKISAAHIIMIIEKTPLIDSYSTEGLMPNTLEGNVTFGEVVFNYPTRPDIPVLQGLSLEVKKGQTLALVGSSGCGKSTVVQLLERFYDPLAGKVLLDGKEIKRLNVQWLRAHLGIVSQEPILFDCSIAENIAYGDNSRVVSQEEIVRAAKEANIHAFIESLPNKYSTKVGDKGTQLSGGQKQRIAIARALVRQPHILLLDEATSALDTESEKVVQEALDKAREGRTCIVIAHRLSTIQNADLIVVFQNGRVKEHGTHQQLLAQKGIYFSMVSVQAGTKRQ
glycogen synthase kinase-3β (GSK-3β), sequence (P49841 whole entry, species assumed): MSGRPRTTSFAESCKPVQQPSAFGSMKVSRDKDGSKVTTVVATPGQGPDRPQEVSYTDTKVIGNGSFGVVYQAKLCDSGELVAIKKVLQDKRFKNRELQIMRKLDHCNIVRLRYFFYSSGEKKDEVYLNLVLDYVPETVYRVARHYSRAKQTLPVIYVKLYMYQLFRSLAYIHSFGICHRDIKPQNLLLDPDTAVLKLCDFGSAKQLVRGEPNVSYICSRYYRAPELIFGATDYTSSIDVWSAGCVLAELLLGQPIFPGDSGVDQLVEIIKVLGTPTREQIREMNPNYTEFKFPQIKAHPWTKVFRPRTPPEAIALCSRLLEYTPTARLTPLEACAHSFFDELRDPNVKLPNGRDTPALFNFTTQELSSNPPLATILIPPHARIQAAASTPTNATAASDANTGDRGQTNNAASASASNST

C(=N\NC1=NCCN1)/c1cccc2cc3c(/C=N/NC4=NCCN4)cccc3cc12 [Formula (III)]
apoptosis [1]: absence of apoptosis | cell cycle impairment [1]: G2M phase arrest | DNA damage response ([1]; telomerase-expressing cells and ALT-positive cell lines, partially co-localize at the telomere): formation of γH2AX foci | effect at the telomerase level (telomerase): suppressing its catalytic activity

CN1C(=O)/C(=C2/C(=O)Nc3ccccc32)c2ccccc21 [Meisoindigo, meisoindigo]
concentration of inhibition of GSK-3β [2]: 5 to 50 nM

C(=NNC1=NCCN1)c1c2ccccc2c(C=NNC2=NCCN2)c2ccccc12 [bisantrene, 9,10-anthracenedicarboxaldehyde bis[(4,5-dihydro-1H-imidazol-2-yl)hydrazine]dihydrochloride]
affinity constants (double-stranded DNA): above 10^6 M^−1 | dose excreted in the urine [3]: 7.1% | t½ α [3]: 0.9 h | t½ β [3]: 9.7 h | interaction with P-glycoprotein (P-glycoprotein): substrate for P-glycoprotein | plasma clearance [4]: 1306±179 mL/min/m^2 | plasma concentration ([4]; dose of 56 mg/m^2): 12 ± 6 ng/mL | plasma concentration ([4]; dose of 260 mg/m^2): 55 ± 8 ng/mL | urinary excretion of the dose ([4]; in 24 hr): 4.6% | activity in murine tumor models ([5]; P-388 leukemia and B-16 melanoma): antitumor activity | activity in cancer models ([5]; intravenously (i.v.), intraperitoneally (i.p.), or subcutaneously (s.c.)): effective | activity in cancer models ([5]; orally): inactive | DNA strand breaks (L1210 leukemia cells; L1210 leukemia cells, typical of inhibition of DNA topoisomerase II): induce protein-associated DNA strand breaks | DNA supercoiling (L1210 leukemia cells; indicative of DNA intercalation): induce altered DNA supercoiling | dose excreted in the urine (in vivo): Less than 7% | route by which the majority of the drug is eliminated (in vivo): hepatobiliary route | area under the plasma concentration×time curve (intravenous dose of 260 mg/m^2): 4400 µg·h/mL | area under the plasma concentration×time curve (intravenous dose of 340 mg/m^2): 5700 µg·h/mL | beta phase (three phases of elimination): approximately 1.5 hours | initial distributive phase (three phases of elimination): 6 min | activity in Phase II clinical trials (metastatic breast cancer): active | time after treatment for which cytostatic macrophages could be isolated from peritoneal exudate (macrophages; cytostatic in cultures of P815 (mastocytoma) tumor cells): 4 weeks | minimal effective in vivo dose (macrophages; macrophage activation): ~25 mg/kg | Maximally tolerated dose ([6]; daily×5, repeat every 4 week (Spiegel et al. 1982)): 80 mg/m^2 | antitumor activity in phase I clinical trials ([6]; hepatocellular cancer and hypernephroma (one patient each), lymphoma, myeloma, melanoma, renal cancer, tumors of the bladder and lung): showed activity | Thrombocytopenia ([6]; human, in vivo): mild | major dose-limiting toxic effect ([6]; human, in vivo): leukopenia | Maximally tolerated dose ([6]; monthly (every 3-4 week) (Von Hoff et al. 1981b)): 260 mg/m^2 | Maximally tolerated dose ([6]; monthly, patients with poor bone marrow reserve (Von Hoff et al. 1981b)): 240 mg/mg^2 | dose limiting toxicity (DLT) ([6]; phase I doses between 190-430 mg/m^2 q3w): neutropenia | doses requiring a central line due to phlebitis ([6]; phase I study, 72 h): over 156 mg/m^2 | MTD ([6]; phase I study, over 72 h): 300 mg/m^2 | nadir for myelosuppression ([6]; schedule of every 3 to 4 weeks): 9 days | recovery from myelosuppression ([6]; schedule of every 3 to 4 weeks): ≤ 19 days | Maximally tolerated dose ([6]; weekly×3 (Alberts et al. 1982)): 200 mg/m^2 | Maximally tolerated dose ([6]; weekly×3, patients with poor bone marrow reserve (Alberts et al. 1982)): 150 mg/mg^2 | Maximally tolerated dose ([6]; weekly×3, repeat every 4-5 week (Yap et al. 1982)): 150 mg/m^2 | patients reporting malaise ([7]; Yap et al. 1982): up to one-half of patients | patients who experienced anaphylactoid reactions ([7]; following a bisantrene infusion): Up to 10% | nausea or vomiting ([7]; human, in vivo): very little nausea or vomiting | radioangiocardiographic monitoring of cardiac function ([7]; patients receiving the drug): no decrease in ejection fraction | cardiotoxicity compared with other agents ([7]; phase III trial): less cardiotoxic than mitoxantrone or doxorubicin | Alopecia (hair loss) compared with doxorubicin ([7]; randomized trial in advanced breast cancer): less intense | bound to plasma proteins (plasma proteins): More than 95% | cardiotoxicity ([8]; animals): not cardiotoxic | toxicity compared with doxorubicin ([8]; cardiotoxicity context): less than that of the anthracycline doxorubicin | toxicities observed ([8]; dogs and monkeys, high doses): leukopenia, anorexia, diarrhea, injection site necrosis, enterocolitis, muscle degeneration, and pulmonary edema | aqueous solubility [9]: lack of aqueous solubility | metabolism in vitro [10]: substrate for hepatic microsomal enzymes | administered dose found in the urine [11]: 3.4±1.1% | volume of distribution [12]: 687 L/m^2 | activity [13]: inactive | Brain levels [14]: extremely low | tissues with the highest concentration (in descending order) [14]: kidney, liver, gallbladder, spleen, lung, and heart | sensitivity in in vitro colony-forming assays (Human tumor cells; breast, ovarian, renal, small cell and non-small cell lung cancer, lymphoma, acute myelogenous leukemia, melanoma, gastric, adrenal, head and neck cancer): sensitive | Activity in clonogenic assays from 684 patients (Human tumor cells; colorectal cancer): not in colorectal cancer | cross resistance (Human tumor cells; with Adriamycin and mitoxantrone): lack of cross resistance | effect on platelet aggregation (Human Platelets): inhibit platelet aggregation | activity (human colon cancer): inactive | t½ α ([15]; another single dose study): 3 min | t½ β ([15]; another single dose study): 1 h | t½ γ ([15]; another single dose study): 8 h | t½ α ([15]; first single dose study): 3.44 min | t½ β ([15]; first single dose study): 1.33 h | t½ γ ([15]; first single dose study): 26.13 h | administered dose excreted unchanged in the urine ([16]; in 24 hr): 11.3% | plasma clearance [16, 18]: 735 mL/min/m^2 | steady state volume of distribution (Vdss) [16, 18]: 1845 L/m^2

O=C([O-])O.[Na+] [sodium bicarbonate]
extravasation necrosis [17]: blocked
